US11427586B2, “1,2,4-oxadiazole derivatives as liver X receptor agonists” (NOVARTIS AG, priority 2019, dated 2022)
Where two headings read alike, the source gives them in different places.

What was measured:
SZ95 sebocytes = assay: Sentinel Lipid Assay (SLA), desaturation index in SZ95 sebocytes; assay type: cell-based; settings: Homo sapiens, 72 h; for EC50: read-out: SLA EC50
Summary of the method: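 SZ95 human sebocytes on fibronectin-coated plates, dosed 72 h at 37 °C with 1:3 dilutions from 10 μM; lipids extracted with deuterated triglyceride internal standards and quantified by LC-MS/MS (MRM) as 11 sentinel lipids. Desaturation index from elastic-net coefficients, normalized to DMSO; Amax relative to a reference LXR agonist.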

SCD1 = assay: Measurement of SCD1 expression in SZ95-SCD1-HiBit cells (HiBiT assay); assay type: cell-based; settings: Homo sapiens, 48 h; for EC50: read-out: HiBit EC50
[1] = normalized Amax based on the reference compound Amax of 100%, read-out: SLA Normalized Amax
[2] = SZ95 cells, desaturation index, lowest dose used 4.6 nM
[3] = SZ95 cells, compared to reference compound, read-out: SLA Amax
[4] = normalized Amax based on the reference compound Amax of 100%, read-out: HiBit Normalized Amax
[5] = SZ95-SCD1-HiBit cells, SCD1 protein production, luminescence, initial dilution 1:3 in DMSO
[6] = SZ95-SCD1-HiBit cells, compared to reference compound, read-out: HiBit Amax

CC(C)CS(=O)(=O)c1ccccc1Oc1ccc(-c2noc(CN3C(=O)N(CCN4CCOCC4)C(C)(CO)C3=O)n2)cc1C(F)(F)F (stereo not drawn) [Compound 46, 5-(hydroxymethyl)-3-((3-(4-(2-(isobutylsulfonyl)phenoxy)-3-(trifluoromethyl)phenyl)-1,2,4-oxadiazol-5-yl)methyl)-5-methyl-1-(2-morpholinoethyl)imidazolidine-2,4-dione]
Emax (SZ95 sebocytes; [1]): 170% | EC50 (SZ95 sebocytes; [2]): ≤ 4.6 nM | Emax (SZ95 sebocytes; [3]): 163% | Emax (SCD1; [4]): 98% | EC50 (SCD1; [5]): 6.06 nM | Emax (SCD1; [6]): 93.2%

CC(C)CS(=O)(=O)c1ccccc1Oc1ccc(-c2noc(CN3C(=O)N(CCN4CCOCC4)C4(CCN(C5CCN(C)CC5)CC4)C3=O)n2)cc1C(F)(F)F [Compound 22, 3-((3-(4-(2-(isobutylsulfonyl)phenoxy)-3-(trifluoromethyl)phenyl)-1,2,4-oxadiazol-5-yl)methyl)-8-(1-methylpiperidin-4-yl)-1-(2-morpholinoethyl)-1,3,8-triazaspiro[4.5]decane-2,4-dione]
Emax (SZ95 sebocytes; [1]): 160% | EC50 (SZ95 sebocytes; [2]): ≤ 4.6 nM | Emax (SZ95 sebocytes; [3]): 154% | Emax (SCD1; [4]): 135% | EC50 (SCD1; [5]): 1.83 nM | Emax (SCD1; [6]): 129%

CC(COc1ccc(-c2noc(CN3C(=O)N(CCC4CCOCC4)C4(CCN(C5CCC5)CC4)C3=O)n2)cc1C(F)(F)F)(C(F)(F)F)C(F)(F)F [Compound 63, 8-cyclobutyl-1-(2-(tetrahydro-2H-pyran-4-yl)ethyl)-3-((3-(4-(3,3,3-trifluoro-2-methyl-2-(trifluoromethyl)propoxy)-3-(trifluoromethyl)phenyl)-1,2,4-oxadiazol-5-yl)methyl)-1,3,8-triazaspiro[4.5]decane-2,4-dione]
Emax (SZ95 sebocytes; read-out: SLA Amax): 72.2% | EC50 (SZ95 sebocytes): ≤ 4.6 nM | Emax (SZ95 sebocytes; read-out: SLA Normalized Amax): 75.2% | Emax (SCD1; read-out: HiBit Amax): 74.6% | EC50 (SCD1): 0.217 nM | Emax (SCD1; read-out: HiBit Normalized Amax): 78.4%

CC(COc1ccc(-c2noc(CN3C(=O)N(CCN4CCOCC4)C4(CCN(C5CCC5)CC4)C3=O)n2)cc1C(F)(F)F)(C(F)(F)F)C(F)(F)F [Compound 14, 8-cyclobutyl-1-(2-morpholinoethyl)-3-((3-(4-(3,3,3-trifluoro-2-methyl-2-(trifluoromethyl)propoxy)-3-(trifluoromethyl)phenyl)-1,2,4-oxadiazol-5-yl)methyl)-1,3,8-triazaspiro[4.5]decane-2,4-dione]
Emax (SZ95 sebocytes; [1]): 130% | EC50 (SZ95 sebocytes; [2]): ≤ 4.6 nM | Emax (SZ95 sebocytes; [3]): 125% | Emax (SCD1; [4]): 91% | EC50 (SCD1; [5]): 0.241 nM | Emax (SCD1; [6]): 86.5%

CC(C)N(C)S(=O)(=O)c1ccccc1Oc1ccc(-c2noc(CN3C(=O)N(CCN4CCOCC4)C4(CCN(C5CCC5)CC4)C3=O)n2)cc1C(F)(F)F [Compound 11, 2-(4-(5-((8-cyclobutyl-1-(2-morpholinoethyl)-2,4-dioxo-1,3,8-triazaspiro[4.5]decan-3-yl)methyl)-1,2,4-oxadiazol-3-yl)-2-(trifluoromethyl)phenoxy)-N-isopropyl-N-methylbenzenesulfonamide]
Emax (SZ95 sebocytes; [1]): 140% | EC50 (SZ95 sebocytes; [2]): ≤ 4.6 nM | Emax (SZ95 sebocytes; [3]): 134% | Emax (SCD1; [4]): 95.9% | EC50 (SCD1; [5]): 0.058 nM | Emax (SCD1; [6]): 91.2%

CC1(C)C(=O)N(Cc2nc(-c3ccc(Oc4ccccc4S(=O)(=O)CC4CCCOC4)c(C(F)(F)F)c3)no2)C(=O)N1CCN1CCOCC1 (stereo not drawn) [Compound 40, 5,5-dimethyl-1-(2-morpholinoethyl)-3-((3-(4-(2-(((tetrahydro-2H-pyran-3-yl)methyl)sulfonyl)phenoxy)-3-(trifluoromethyl)phenyl)-1,2,4-oxadiazol-5-yl)methyl)imidazolidine-2,4-dione]
Emax (SZ95 sebocytes; [1]): 168% | EC50 (SZ95 sebocytes; [2]): ≤ 4.6 nM | Emax (SZ95 sebocytes; [3]): 161% | Emax (SCD1; [4]): 74.7% | EC50 (SCD1; [5]): 7.08 nM | Emax (SCD1; [6]): 71%

CC1(C)C(=O)N(Cc2nc(-c3ccc(Oc4ccccc4S(=O)(=O)CC4CCCCO4)c(C(F)(F)F)c3)no2)C(=O)N1CCN1CCOCC1 (stereo not drawn) [Compound 53, 5,5-dimethyl-1-(2-morpholinoethyl)-3-((3-(4-(2-(((tetrahydro-2H-pyran-2-yl)methyl)sulfonyl)phenoxy)-3-(trifluoromethyl)phenyl)-1,2,4-oxadiazol-5-yl)methyl)imidazolidine-2,4-dione]
Emax (SZ95 sebocytes; [1]): 146% | EC50 (SZ95 sebocytes; [2]): ≤ 4.6 nM | Emax (SZ95 sebocytes; [3]): 140% | Emax (SCD1; [4]): 101% | EC50 (SCD1; [5]): 0.264 nM | Emax (SCD1; [6]): 96.2%

CC(C)CS(=O)(=O)c1ccccc1Oc1ccc(-c2noc(CN3C(=O)N(Cc4ccccn4)C(C)(C)C3=O)n2)cc1C(F)(F)F [Compound 51, 3-((3-(4-(2-(isobutylsulfonyl)phenoxy)-3-(trifluoromethyl)phenyl)-1,2,4-oxadiazol-5-yl)methyl)-5,5-dimethyl-1-(pyridin-2-ylmethyl)imidazolidine-2,4-dione]
Emax (SZ95 sebocytes; [1]): 120% | EC50 (SZ95 sebocytes; [2]): ≤ 4.6 nM | Emax (SZ95 sebocytes; [3]): 116% | Emax (SCD1; [4]): 88.7% | EC50 (SCD1; [5]): 12.2 nM | Emax (SCD1; [6]): 84.4%

CC(COc1ccc(-c2noc(CN3C(=O)N(CCN4CCOCC4)C4(CCN(C(=O)c5cncnc5)CC4)C3=O)n2)cc1C(F)(F)F)(C(F)(F)F)C(F)(F)F [Compound 30, 1-(2-morpholinoethyl)-8-(pyrimidine-5-carbonyl)-3-((3-(4-(3,3,3-trifluoro-2-methyl-2-(trifluoromethyl)propoxy)-3-(trifluoromethyl)phenyl)-1,2,4-oxadiazol-5-yl)methyl)-1,3,8-triazaspiro[4.5]decane-2,4-dione]
Emax (SZ95 sebocytes; [1]): 85.5% | EC50 (SZ95 sebocytes; [2]): 34.4 nM | Emax (SZ95 sebocytes; [3]): 82.1% | Emax (SCD1; [4]): 89.3% | EC50 (SCD1; [5]): 1.04 nM | Emax (SCD1; [6]): 84.9%

O=C1N(Cc2nc(-c3ccc(Oc4ccccc4S(=O)(=O)CC4CCCO4)c(C(F)(F)F)c3)no2)C(=O)C2(CCN(C3CCC3)CC2)N1CCN1CCOCC1 (stereo not drawn) [Compound 18, 8-cyclobutyl-1-(2-morpholinoethyl)-3-((3-(4-(2-(((tetrahydrofuran-2-yl)methyl)sulfonyl)phenoxy)-3-(trifluoromethyl)phenyl)-1,2,4-oxadiazol-5-yl)methyl)-1,3,8-triazaspiro[4.5]decane-2,4-dione]
Emax (SZ95 sebocytes; [1]): 141% | EC50 (SZ95 sebocytes; [2]): ≤ 4.6 nM | Emax (SZ95 sebocytes; [3]): 135% | Emax (SCD1; [4]): 139% | EC50 (SCD1; [5]): 0.133 nM | Emax (SCD1; [6]): 132%

CCN1CCC2(CC1)C(=O)N(Cc1nc(-c3ccc(Oc4ccccc4S(=O)(=O)CC(C)C)c(C(F)(F)F)c3)no1)C(=O)N2CCN1CCOCC1 [Compound 24, 8-ethyl-3-((3-(4-(2-(isobutylsulfonyl)phenoxy)-3-(trifluoromethyl)phenyl)-1,2,4-oxadiazol-5-yl)methyl)-1-(2-morpholinoethyl)-1,3,8-triazaspiro[4.5]decane-2,4-dione]
Emax (SZ95 sebocytes; [1]): 164% | EC50 (SZ95 sebocytes; [2]): ≤ 4.6 nM | Emax (SZ95 sebocytes; [3]): 158% | Emax (SCD1; [4]): 117% | EC50 (SCD1; [5]): 0.05 nM | Emax (SCD1; [6]): 111%

CC1(C)C(=O)N(Cc2nc(-c3ccc(Oc4cnccc4C(F)(F)F)c(C(F)(F)F)c3)no2)C(=O)N1CCN1CCOCC1 [Compound 65, 5,5-dimethyl-1-(2-morpholinoethyl)-3-((3-(3-(trifluoromethyl)-4-((4-(trifluoromethyl)pyridin-3-yl)oxy)phenyl)-1,2,4-oxadiazol-5-yl)methyl)imidazolidine-2,4-dione]
Emax (SZ95 sebocytes; [1]): 108% | EC50 (SZ95 sebocytes; [2]): ≤ 4.6 nM | Emax (SZ95 sebocytes; [3]): 104% | Emax (SCD1; [4]): 69.8% | EC50 (SCD1; [5]): 15.1 nM | Emax (SCD1; [6]): 66.4%

CC(COc1ccc(-c2noc(CN3C(=O)N(CCC4CCOCC4)C4(CCN(C(=O)c5cncnc5)CC4)C3=O)n2)cc1C(F)(F)F)(C(F)(F)F)C(F)(F)F [Compound 31, 8-(pyrimidine-5-carbonyl)-1-(2-(tetrahydro-2H-pyran-4-yl)ethyl)-3-((3-(4-(3,3,3-trifluoro-2-methyl-2-(trifluoromethyl)propoxy)-3-(trifluoromethyl)phenyl)-1,2,4-oxadiazol-5-yl)methyl)-1,3,8-triazaspiro[4.5]decane-2,4-dione]
Emax (SZ95 sebocytes; [1]): 100% | EC50 (SZ95 sebocytes; [2]): ≤ 4.6 nM | Emax (SZ95 sebocytes; [3]): 96.3% | Emax (SCD1; [4]): 82.3% | EC50 (SCD1; [5]): 0.44 nM | Emax (SCD1; [6]): 78.3%

CC(CS(=O)(=O)c1ccccc1Oc1ccc(-c2noc(CN3C(=O)N(CCN4CCOCC4)C(C)(C)C3=O)n2)cc1C(F)(F)F)N1CCCC1 (stereo not drawn) [Compound 43, 5,5-dimethyl-1-(2-morpholinoethyl)-3-((3-(4-(2-((2-(pyrrolidin-1-yl)propyl)sulfonyl)phenoxy)-3-(trifluoromethyl)phenyl)-1,2,4-oxadiazol-5-yl)methyl)imidazolidine-2,4-dione]
Emax (SZ95 sebocytes; [1]): 147% | EC50 (SZ95 sebocytes; [2]): ≤ 4.6 nM | Emax (SZ95 sebocytes; [3]): 141% | Emax (SCD1; [4]): 84.1% | EC50 (SCD1; [5]): 1.15 nM | Emax (SCD1; [6]): 80%

O=C1N(Cc2nc(-c3ccc(Oc4ccccc4S(=O)(=O)CC(F)(F)F)c(C(F)(F)F)c3)no2)C(=O)C2(CCN(C3CCC3)CC2)N1CCN1CCOCC1 [Compound 47, 8-cyclobutyl-1-(2-morpholinoethyl)-3-((3-(4-(2-((2,2,2-trifluoroethyl)sulfonyl)phenoxy)-3-(trifluoromethyl)phenyl)-1,2,4-oxadiazol-5-yl)methyl)-1,3,8-triazaspiro[4.5]decane-2,4-dione]
Emax (SZ95 sebocytes; [1]): 147% | EC50 (SZ95 sebocytes; [2]): ≤ 4.6 nM | Emax (SZ95 sebocytes; [3]): 142% | Emax (SCD1; [4]): 80.5% | EC50 (SCD1; [5]): 0.728 nM | Emax (SCD1; [6]): 76.6%
